Source: US9474790B2, “Stable, protracted GLP-1/glucagon receptor co-agonists for medical use” (Novo Nordisk A/S, priority 2013, dated 2016)
Numbered stars: 1 amine (or outer) side, 2 acyl side, 3 side chain; on linkers, the order of the positions; unused ones are H or OH. Square brackets hold non-standard residues; d marks the D form. Side chains are listed from the residue outwards. Peptide text beside a SMILES is read from it. * marks the point of attachment. C18 diacid = O=C(O)CCCCCCCCCCCCCCCCC(=O)*; γGlu = O=C(O)[C@H](CCC(=O)[*:2])N[*:1]; Ac4c = NC1(C(=O)O)CCC1; AEEA = NCCOCCOCC(=O)O; Aib = CC(C)(N)C(=O)O

These compounds were tested against T1, human glucagon receptor (Homo sapiens, UniProt P47871) (assay: Glucagon receptor binding, 125I-glucagon displacement SPA on isolated membranes). Settings: displacement of 125I-glucagon from membranes; read-out: IC50 GlucR.
T1 construct: expressed in transfected cells; host or cells: BHK cells (parent BHK570, CRE luciferase clone BHK/KZ10-20-48), clone pLJ6'-4-25
Procedure, shortened: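 Displacement IC50 derived by non-linear regression of SPA counts after 2 h, 25 °C incubation of compound with [125I]-glucagon (480 pM solution, 25 μl) and membranes of hGCGR-transfected BHK cells. Buffer was HEPES pH 7.4 with ovalbumin; serum albumin was held at 0.001% max or 0.2% final.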

T1 sequence (P47871 26-477): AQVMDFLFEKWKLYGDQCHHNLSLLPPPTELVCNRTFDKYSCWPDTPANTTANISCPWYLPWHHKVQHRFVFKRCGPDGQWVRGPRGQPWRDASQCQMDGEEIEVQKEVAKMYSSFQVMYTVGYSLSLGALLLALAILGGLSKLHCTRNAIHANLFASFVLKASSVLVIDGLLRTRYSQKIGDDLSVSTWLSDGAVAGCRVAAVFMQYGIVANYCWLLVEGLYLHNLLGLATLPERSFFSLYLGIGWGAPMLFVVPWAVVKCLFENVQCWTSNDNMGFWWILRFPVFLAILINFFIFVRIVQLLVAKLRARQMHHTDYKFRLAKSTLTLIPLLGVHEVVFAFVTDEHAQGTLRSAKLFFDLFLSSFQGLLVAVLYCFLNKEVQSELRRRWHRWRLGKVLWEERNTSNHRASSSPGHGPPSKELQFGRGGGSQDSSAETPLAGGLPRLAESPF

Row | Structure (SMILES) | IC50
1 | CC(C)C[C@H](NC(=O)[C@H](Cc1ccc(O)cc1)NC(=O)[C@H](CCCNC(=N)N)NC(=O)[C@H](CO)NC(=O)[C@H](CC(C)C)NC(=O)[C@H](CC(=O)O)NC(=O)[C@H](CO)NC(=O)[C@@H](NC(=O)[C@H](Cc1ccccc1)NC(=O)[C@@H](NC(=O)CNC(=O)[C@H](CCC(N)=O)NC(=O)C1(NC(=O)[C@@H](N)Cc2c[nH]cn2)CCC1)[C@@H](C)O)[C@@H](C)O)C(=O)N[C@@H](CCC(=O)O)C(=O)N[C@@H](CO)C(=O)N[C@@H](CCCNC(=N)N)C(=O)N[C@@H](CCCNC(=N)N)C(=O)N[C@@H](C)C(=O)N[C@@H](CCCNC(=N)N)C(=O)N[C@@H](CCC(=O)O)C(=O)N[C@@H](Cc1ccccc1)C(=O)N[C@H](C(=O)N[C@@H](CCC(N)=O)C(=O)N[C@@H](Cc1c[nH]c2ccccc12)C(=O)N[C@@H](CC(C)C)C(=O)N[C@@H](CC(C)C)C(=O)N[C@@H](CCCCNC(=O)CC[C@H](NC(=O)CC[C@H](NC(=O)COCCOCCNC(=O)COCCOCCNC(=O)CC[C@H](NC(=O)CC[C@H](NC(=O)CCCCCCCCCCCCCCCCC(=O)O)C(=O)O)C(=O)O)C(=O)O)C(=O)O)C(=O)N[C@H](C(N)=O)[C@@H](C)O)C(C)C [Example 59, N^ε28-[(4S)-4-carboxy-4-[[(4S)-4-carboxy-4-[[2-[2-[2-[[2-[2-[2-[[(4S)-4-carboxy-4-[[(4S)-4-carboxy-4-(17-carboxyheptadecanoylamino)butanoyl]amino]butanoyl]amino]ethoxy]ethoxy]acetyl]amino]ethoxy]ethoxy]acetyl]amino]butanoyl]amino]butanoyl]-[Acb2,Leu10,Arg12,Glu15,Arg20,Glu21,Leu27,Lys28]-Glucagon amide] (H-H[Ac4c]QGTFTSDLSRYLESRRAREFVQWLLK([γGlu-γGlu-AEEA-AEEA-γGlu-γGlu-C18 diacid])T-NH2; N-terminus assumed) | 1.4 nM
2 | CC(C)C[C@H](NC(=O)[C@H](Cc1ccc(O)cc1)NC(=O)[C@H](CCCCN)NC(=O)[C@H](CO)NC(=O)[C@H](CC(C)C)NC(=O)[C@H](CC(=O)O)NC(=O)[C@H](CO)NC(=O)[C@@H](NC(=O)[C@H](Cc1ccccc1)NC(=O)[C@@H](NC(=O)CNC(=O)[C@H](CCC(N)=O)NC(=O)C(C)(C)NC(=O)[C@@H](N)Cc1c[nH]cn1)[C@@H](C)O)[C@@H](C)O)C(=O)N[C@@H](CCC(=O)O)C(=O)N[C@@H](CO)C(=O)N[C@@H](CCCNC(=N)N)C(=O)N[C@@H](CCCNC(=N)N)C(=O)N[C@@H](C)C(=O)N[C@@H](CCCNC(=N)N)C(=O)N[C@@H](CCC(=O)O)C(=O)N[C@@H](Cc1ccccc1)C(=O)N[C@H](C(=O)N[C@@H](CCC(N)=O)C(=O)N[C@@H](Cc1c[nH]c2ccccc12)C(=O)N[C@@H](CC(C)C)C(=O)N[C@@H](CC(C)C)C(=O)N[C@@H](CCCCNC(=O)CC[C@H](NC(=O)CC[C@H](NC(=O)COCCOCCNC(=O)COCCOCCNC(=O)CC[C@H](NC(=O)CC[C@H](NC(=O)CCCCCCCCCCCCCCCCC(=O)O)C(=O)O)C(=O)O)C(=O)O)C(=O)O)C(=O)N[C@H](C(N)=O)[C@@H](C)O)C(C)C [Example 60, N^ε28-[(4S)-4-carboxy-4-[[(4S)-4-carboxy-4-[[2-[2-[2-[[2-[2-[2-[[(4S)-4-carboxy-4-[[(4S)-4-carboxy-4-(17-carboxyheptadecanoylamino)butanoyl]amino]butanoyl]amino]ethoxy]ethoxy]acetyl]amino]ethoxy]ethoxy]acetyl]amino]butanoyl]amino]butanoyl]-[Aib2,Leu10,Glu15,Arg20,Glu21,Leu27,Lys28]-Glucagon amide] (H-H[Aib]QGTFTSDLSKYLESRRAREFVQWLLK([γGlu-γGlu-AEEA-AEEA-γGlu-γGlu-C18 diacid])T-NH2; N-terminus assumed) | 4 nM
3 | CC(C)C[C@H](NC(=O)[C@H](Cc1ccc(O)cc1)NC(=O)[C@H](CCCCN)NC(=O)[C@H](CO)NC(=O)[C@H](CC(C)C)NC(=O)[C@H](CC(=O)O)NC(=O)[C@H](CO)NC(=O)[C@@H](NC(=O)[C@H](Cc1ccccc1)NC(=O)[C@@H](NC(=O)CNC(=O)[C@H](CCC(N)=O)NC(=O)C1(NC(=O)[C@@H](N)Cc2c[nH]cn2)CCC1)[C@@H](C)O)[C@@H](C)O)C(=O)N[C@@H](CCC(=O)O)C(=O)N[C@@H](CO)C(=O)N[C@@H](CCCNC(=N)N)C(=O)N[C@@H](CCCNC(=N)N)C(=O)N[C@@H](C)C(=O)N[C@@H](CCCNC(=N)N)C(=O)N[C@@H](CCC(=O)O)C(=O)N[C@@H](Cc1ccccc1)C(=O)N[C@H](C(=O)N[C@@H](CCC(N)=O)C(=O)N[C@@H](Cc1c[nH]c2ccccc12)C(=O)N[C@@H](CC(C)C)C(=O)N[C@@H](CC(C)C)C(=O)N[C@@H](CCCCNC(=O)CC[C@H](NC(=O)CC[C@H](NC(=O)COCCOCCNC(=O)COCCOCCNC(=O)CC[C@H](NC(=O)CC[C@H](NC(=O)CCCCCCCCCCCCCCCCC(=O)O)C(=O)O)C(=O)O)C(=O)O)C(=O)O)C(=O)N[C@H](C(N)=O)[C@@H](C)O)C(C)C [Example 61, N^ε28-[(4S)-4-carboxy-4-[[(4S)-4-carboxy-4-[[2-[2-[2-[[2-[2-[2-[[(4S)-4-carboxy-4-[[(4S)-4-carboxy-4-(17-carboxyheptadecanoylamino)butanoyl]amino]butanoyl]amino]ethoxy]ethoxy]acetyl]amino]ethoxy]ethoxy]acetyl]amino]butanoyl]amino]butanoyl]-[Acb2,Leu10,Glu15,Arg20,Glu21,Leu27,Lys28]-Glucagon amide] (H-H[Ac4c]QGTFTSDLSKYLESRRAREFVQWLLK([γGlu-γGlu-AEEA-AEEA-γGlu-γGlu-C18 diacid])T-NH2; N-terminus assumed) | 1.8 nM
4 | CC(C)C[C@H](NC(=O)[C@H](Cc1ccc(O)cc1)NC(=O)[C@H](CCCNC(=N)N)NC(=O)[C@H](CO)NC(=O)[C@H](CC(C)C)NC(=O)[C@H](CC(=O)O)NC(=O)[C@H](CO)NC(=O)[C@@H](NC(=O)[C@H](Cc1ccccc1)NC(=O)[C@@H](NC(=O)CNC(=O)[C@H](CCC(N)=O)NC(=O)C(C)(C)NC(=O)[C@@H](N)Cc1c[nH]cn1)[C@@H](C)O)[C@@H](C)O)C(=O)N[C@@H](CC(=O)O)C(=O)N[C@@H](C)C(=O)N[C@@H](CCCNC(=N)N)C(=O)N[C@@H](CCCNC(=N)N)C(=O)N[C@@H](C)C(=O)N[C@@H](CCCNC(=N)N)C(=O)N[C@@H](CC(=O)O)C(=O)N[C@@H](Cc1ccccc1)C(=O)N[C@H](C(=O)N[C@@H](CCC(N)=O)C(=O)N[C@@H](Cc1c[nH]c2ccccc12)C(=O)N[C@@H](CC(C)C)C(=O)N[C@@H](CC(C)C)C(=O)N[C@@H](CCCCNC(=O)CC[C@H](NC(=O)CC[C@H](NC(=O)CC[C@H](NC(=O)CCCCCCCCCCCCCCCCC(=O)O)C(=O)O)C(=O)O)C(=O)O)C(=O)N[C@H](C(N)=O)[C@@H](C)O)C(C)C [Example 62, N^ε28-[(4S)-4-carboxy-4-[[(4S)-4-carboxy-4-[[(4S)-4-carboxy-4-(17-carboxyheptadecanoylamino)butanoyl]amino]butanoyl]amino]butanoyl]-[Aib2,Leu10,Arg12,Ala16,Arg20,Leu27,Lys28]-Glucagon amide] (H-H[Aib]QGTFTSDLSRYLDARRARDFVQWLLK([γGlu-γGlu-γGlu-C18 diacid])T-NH2; N-terminus assumed) | 3.9 nM
5 | CC(C)C[C@H](NC(=O)[C@H](Cc1ccc(O)cc1)NC(=O)[C@H](CCCCN)NC(=O)[C@H](CO)NC(=O)[C@H](CC(C)C)NC(=O)[C@H](CC(=O)O)NC(=O)[C@H](CO)NC(=O)[C@@H](NC(=O)[C@H](Cc1ccccc1)NC(=O)[C@@H](NC(=O)CNC(=O)[C@H](CCC(N)=O)NC(=O)C(C)(C)NC(=O)[C@@H](N)Cc1c[nH]cn1)[C@@H](C)O)[C@@H](C)O)C(=O)N[C@@H](CCC(=O)O)C(=O)N[C@@H](CO)C(=O)N[C@@H](CCCNC(=N)N)C(=O)N[C@@H](CCCNC(=N)N)C(=O)N[C@@H](C)C(=O)N[C@@H](CCCNC(=N)N)C(=O)N[C@@H](CCC(=O)O)C(=O)N[C@@H](Cc1ccccc1)C(=O)N[C@H](C(=O)N[C@@H](CCC(N)=O)C(=O)N[C@@H](Cc1c[nH]c2ccccc12)C(=O)N[C@@H](CC(C)C)C(=O)N[C@@H](CC(C)C)C(=O)N[C@@H](CCCCNC(=O)CC[C@H](NC(=O)CC[C@H](NC(=O)[C@H](CO)NC(=O)[C@H](CCC(=O)O)NC(=O)[C@H](CO)NC(=O)CC[C@H](NC(=O)CC[C@H](NC(=O)CCCCCCCCCCCCCCCCC(=O)O)C(=O)O)C(=O)O)C(=O)O)C(=O)O)C(=O)N[C@H](C(N)=O)[C@@H](C)O)C(C)C [Example 67, N^ε28-[(4S)-4-carboxy-4-[[(4S)-4-carboxy-4-[[(2S)-2-[[(2S)-4-carboxy-2-[[(2S)-2-[[(4S)-4-carboxy-4-[[(4S)-4-carboxy-4-(17-carboxyheptadecanoylamino)butanoyl]amino]butanoyl]amino]-3-hydroxypropanoyl]amino]butanoyl]amino]-3-hydroxypropanoyl]amino]butanoyl]amino]butanoyl]-[Aib2,Leu10,Glu15,Arg20,Glu21,Leu27,Lys28]-Glucagon amide] (H-H[Aib]QGTFTSDLSKYLESRRAREFVQWLLK([γGlu-γGlu-Ser-Glu-Ser-γGlu-γGlu-C18 diacid])T-NH2; N-terminus assumed) | 1.5 nM
